Test system: Sca+Lin- progenitors
Experiment: Generation of murine dendritic cells from bone marrow Sca+ progenitors, cell surface phenotype (Example 13)
Assay type: cell-based, C57BL/6 mice
Conditions: 10 μM
Description: Mouse bone marrow from inbred C57BL/6 mice are obtained from Clonetics. Hematopoietic Sca+Lin− progenitors are enriched using SpinSep murine progenitor enrichment cocktail (StemCell Technologies) and cultured in Iscove's MDM with BUI 95000 (StemCell Technologies) in the presence of murine growth factors SCF, Flt3L, GM-CSF and M-CSF for 9 days, to promote expansion of Sca+ cells and a DC precursor phenotype and then in the presence of GM-CSF and TNF-α for 3 additional days to drive the cells to an immature DC phenotype. Enriched Sca+Lin− cells are cultured in the presence of DMSO (0.1%), SelCIDs™ at 10 μM or all-trans retinoic acid (ATRA) (ICN Biomedicals) at 10 μM from day 0. Compounds are added to cells at day 0 and day 9.
Analysis of Murine cell surface phenotype: murine cells are processed for double staining (14 min at RT) at day 9 and day 12; using FITC and PE conjugated mAbs. Antibodies used are from BD Pharmingen: Sca (PE), CD11b (FITC), Gr-1 ([…]), CD86 (PE), CD14 (PE), CD80 (PE), I-Ab (PE), CD40 (PE) and CD32.1/16.1 (FITC) from Miltenyi. Fluorescence analysis is performed on a FACScan flow cytometer ([…]) after acquisition of 10,000 events.

CC1=C(/C=C/C(C)=C/C=C/C(C)=C/C(=O)O)C(C)(C)CCC1 [ATRA, all-trans retinoic acid]
CD80, I-A^b and Sca+ expression (by day 9): marked downregulation | expression of CD40 and CD80 (by day 12): marked downregulation

Reference: patent publication US20050118715A1, “Modulation of stem and progenitor cell differentiation, assays, and uses thereof” (priority 2002, published 2005)
